Data taken from patent US20230172885A1, “THIOL-CONTAINING COMPOUNDS FOR USE IN TREATING CORONAVIRUS” (priority 2020, published 2023).

Biological target: RBD^N501Y binding to ACE2 (Severe acute respiratory syndrome coronavirus 2, UniProt P0DTC2, N501Y)
Design: species or system SARS-CoV-2

SMILES	inhibition of binding of RBD^N501Y to ACE2
NCCS [Cysteamine]	potently inhibited
O[C@@H]1[C@@H](O)[C@@H](O[C@H]2O[C@H](CS)[C@@H](O)[C@H](O)[C@H]2O)O[C@H](CS)[C@H]1O [MUC-31, 6,6′-dithiotrehalose]	potently inhibited
